Test: excess molar enthalpy (molar enthalpy of mixing); xn = mol fraction of the nth substance listed
Conditions: Liquid, Flow calorimetry

CN1CCCC1=O [N-methylpyrrolidone] + CO
393.15 K, 1790 kPa
Conditions | excess molar enthalpy [kcal/mol]
x2 = 0.0576 | -0.0354
x2 = 0.1114 | -0.0657
x2 = 0.2093 | -0.113
x2 = 0.2959 | -0.146
x2 = 0.3732 | -0.168
x2 = 0.4425 | -0.18
x2 = 0.5051 | -0.184
x2 = 0.5619 | -0.183
x2 = 0.6136 | -0.177
x2 = 0.6609 | -0.167
x2 = 0.7043 | -0.157
x2 = 0.7443 | -0.143
x2 = 0.7813 | -0.128
x2 = 0.8156 | -0.113
x2 = 0.8475 | -0.0968
x2 = 0.8772 | -0.0817
x2 = 0.905 | -0.0652
x2 = 0.931 | -0.0488
x2 = 0.9554 | -0.0323
x2 = 0.9784 | -0.016
x2 = 0.9893 | -0.00837

O=S1(=O)CCCC1 [sulfolane] + O
413.15 K, 1820 kPa
Conditions | excess molar enthalpy [kcal/mol]
x2 = 0.0621 | 0.0968
x2 = 0.1183 | 0.17
x2 = 0.2159 | 0.284
x2 = 0.3676 | 0.405
x2 = 0.48 | 0.443
x2 = 0.5667 | 0.445
x2 = 0.6355 | 0.428
x2 = 0.6915 | 0.401
x2 = 0.738 | 0.37
x2 = 0.7772 | 0.337
x2 = 0.8395 | 0.272
x2 = 0.8648 | 0.241
x2 = 0.887 | 0.211
x2 = 0.9067 | 0.181
x2 = 0.9243 | 0.152
x2 = 0.9401 | 0.125
x2 = 0.9544 | 0.0985
x2 = 0.9674 | 0.0727
x2 = 0.9792 | 0.0476
x2 = 0.99 | 0.0232
